Source: patent US8883410B2, “Method for determining the stability of organic methyleneamines in the presence of semicarbazide-sensitive amine oxidase” (Sanofi, priority 2007, dated 2014)

Target: T1, human SSAO T2 (Met211-Asn763), C-terminal 6xHIS tag (Homo sapiens, UniProt Q16853)
T1 construct: T2 (Met211-Asn763) Representing the Putative Catalytic Domain; expressed in transfected cells; cell lysate
T1 sequence (Q16853 211-763): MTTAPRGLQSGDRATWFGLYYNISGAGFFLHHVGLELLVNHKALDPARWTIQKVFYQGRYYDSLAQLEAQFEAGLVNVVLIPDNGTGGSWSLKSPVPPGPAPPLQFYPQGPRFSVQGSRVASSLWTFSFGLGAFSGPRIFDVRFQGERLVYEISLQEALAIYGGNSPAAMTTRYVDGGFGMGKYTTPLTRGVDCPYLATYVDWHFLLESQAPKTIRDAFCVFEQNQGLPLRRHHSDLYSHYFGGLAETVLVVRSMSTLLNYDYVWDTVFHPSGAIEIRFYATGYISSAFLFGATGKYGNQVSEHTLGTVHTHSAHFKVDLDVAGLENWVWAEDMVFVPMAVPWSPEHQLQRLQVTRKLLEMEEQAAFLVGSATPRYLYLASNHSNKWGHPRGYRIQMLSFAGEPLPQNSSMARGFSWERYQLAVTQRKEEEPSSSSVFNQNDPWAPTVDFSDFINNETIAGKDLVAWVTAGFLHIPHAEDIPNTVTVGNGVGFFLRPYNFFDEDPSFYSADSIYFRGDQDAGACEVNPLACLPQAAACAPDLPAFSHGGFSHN
Assay: Benzylamine stability in lysate of cells expressing T2 SSAO with C-terminal 6xHIS tag, LC/MS/MS
Assay type: in vitro ADME
Experimental: 4) T2 (Met211-Asn763) Representing the Putative Catalytic Domain.
The expression constructs were prepared by cloning these PCR products into the pCDNA5-FRT-To-DEST vector (Invitrogen, Gateway System™). The forward and reverse DNA sequence of each construct was confirmed including expressed sequences and at least 100 base pairs either side of this. Stable cell lines for Flp-In CHO, Flp-In CHO T-Rex, and Flp-In HEK 293 (Invitrogen, Flp-In system™) were generated using these 6 constructs according to manufacturer's instructions. Cells were co-transfected with the regulatory vector, pOG44, and each of the pCDNA5-FRT-To-DEST constructs using Lipfectamine (Invitrogen) according to manufacturer's instructions. Thus, 18 cell lines were generated: CHO Flp-In full-length SSAO; CHO Flp-In full-length SSAO with C-terminal 6×HIS tag; CHO Flp-In T1 SSAO; CHO Flp-In T1 SSAO with C-terminal 6×HIS tag; CHO Flp-In T2 SSAO; CHO Flp-In T2 SSAO with C-terminal 6×HIS tag; CHO T-Rex Flp-In full-length SSAO; CHO T-Rex Flp-In full-length SSAO with C-terminal 6×HIS tag; CHO T-Rex Flp-In T1 SSAO; CHO T-Rex Flp-In T1 SSAO with C-terminal 6×HIS tag; CHO T-Rex Flp-In T2 SSAO; CHO Flp-In T2 SSAO with C-terminal 6×HIS tag; HEK 293 Flp-In full-length SSAO; HEK 293 Flp-In full-length SSAO with C-terminal 6×HIS tag; HEK 293 Flp-In T1 SSAO; HEK 293 Flp-In T1 SSAO with C-terminal 6×HIS tag; HEK 293 Flp-In T2 SSAO; HEK 293 Flp-In T2 SSAO with C-terminal 6×HIS tag.
Adherent CHO cells were cultured at 37° C., 5% CO2 in media containing Ham's F12, 10% fetal bovine serum, 2 mM L-glutamine, 1% Penicillin/Streptomycin, 300 μM hygromycin B. Adherent HEK 293 cells were cultured at 37° C., 5% CO2 in D-MEM (high glucose), 10% fetal bovine serum, 2 mM L-glutamine, and 200 μM hygromycin B. Stable transformants were identified by loss of zeocin resistance. Once the cells were 80% confluent, SSAO expression was induced by the addition of Tetracycline to 1 μg/mL. Following 18 hours, the cells were harvested using a trypsin treatment of 3 minutes, at room temperature. Cells were washed 3 times in phosphate buffered saline before flash freezing in liquid nitrogen.
For the preparation of cell lysate for activity testing, frozen cell pellets were resuspended in lysate buffer containing 10 mM Tris-HCl (pH 7.2), 150 mM NaCl, 1.5 mM MgCl2, 1% v/v NP-40 and incubated for 15 minutes on ice. Lysate was cleared by centrifugation 800×g for 10 minutes, 4° C. and stored in aliquots at −80° C. until use. Proteins were determined using Pierce Coomassie Protein Reagent, according to manufacturer's instructions.
For each assay run, 1 mL of cell lysate (1.5 mg/mL protein) was mixed with benzylamine to 2000 ng/mL final concentration. At each corresponding time point, […] the incubation mixture was transferred to a microcentrifuge tube (1.7 mL) and mixed with 50 μL of acetonitrile. The tubes were vortex mixed briefly to ensure complete mixing and then centrifuged at 10,000×g for 5 minutes. The supernatant was removed and 50 μL was transferred to an autosampler vial and mixed with 50 μL of water before LC/MS/MS analysis. Benzylamine remaining in the lysate was analyzed with LC/MS/MS method.
LC/MS/MS analysis was performed with a PE Sciex API 3000 mass spectrometer under the following conditions listed below and in Tables 1 and 2: […]

Benzylamine Remaining (%) (CHO Flp-In T-Rex lysate, 0 min): 100%
Benzylamine Remaining (%) (CHO Flp-In T-Rex lysate, 10 min): 100%
Benzylamine Remaining (%) (CHO Flp-In T-Rex lysate, 2 h): 97%
Benzylamine Remaining (%) (CHO Flp-In lysate, 0 min): 100%
Benzylamine Remaining (%) (CHO Flp-In lysate, 10 min): 108%
Benzylamine Remaining (%) (CHO Flp-In lysate, 2 h): 102%
Benzylamine Remaining (%) (HEK293 lysate, 0 min): 100%
Benzylamine Remaining (%) (HEK293 lysate, 10 min): 100%
Benzylamine Remaining (%) (HEK293 lysate, 2 h): 117%
Compound: NCc1ccccc1 [Benzylamine]
